Calls of active or inactive are those of the source.
Legend:
[1] = molecular target: T1, Caspase-3 (Homo sapiens, UniProt P42574); assay: SAR Analysis of small molecule inhibitors of Sentrin-specific proteases (SENPs) using a Caspase-3 Selectivity assay. [Related pubchem assays (depositor defined):AID2540, AID2599, AID434973, AID489001]; assay type: functional
T1 sequence (P42574 whole entry): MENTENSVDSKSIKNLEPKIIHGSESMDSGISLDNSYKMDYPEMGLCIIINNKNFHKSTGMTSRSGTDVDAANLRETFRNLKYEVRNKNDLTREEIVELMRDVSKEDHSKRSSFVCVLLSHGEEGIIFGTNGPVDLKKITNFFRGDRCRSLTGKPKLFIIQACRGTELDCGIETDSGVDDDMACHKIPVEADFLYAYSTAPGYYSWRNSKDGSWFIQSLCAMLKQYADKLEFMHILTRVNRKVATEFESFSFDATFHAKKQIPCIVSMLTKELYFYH

[2] = molecular target: T2, Sentrin-specific protease 8 (Homo sapiens, UniProt Q96LD8); assay: inhibition of human SENP8 cleavage activity – biochemical, luminescence, SAR follow-up (AID 504501); assay type: functional
T2 sequence (Q96LD8 whole entry): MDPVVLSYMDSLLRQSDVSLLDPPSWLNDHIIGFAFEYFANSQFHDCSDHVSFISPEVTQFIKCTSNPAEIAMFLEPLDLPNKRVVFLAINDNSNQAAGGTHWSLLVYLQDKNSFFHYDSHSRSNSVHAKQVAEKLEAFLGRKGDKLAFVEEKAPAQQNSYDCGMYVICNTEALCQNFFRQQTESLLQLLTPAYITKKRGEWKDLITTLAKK

[3] = molecular target: T3, Sentrin-specific protease 6 (Homo sapiens, UniProt Q9GZR1); assay: SAR Analysis of small molecule inhibitors of Sentrin-specific protease 6 (SENP6) using a Luminescent assay. [Related pubchem assays (depositor defined):AID2582, AID2599]; assay type: functional
T3 sequence (Q9GZR1 whole entry): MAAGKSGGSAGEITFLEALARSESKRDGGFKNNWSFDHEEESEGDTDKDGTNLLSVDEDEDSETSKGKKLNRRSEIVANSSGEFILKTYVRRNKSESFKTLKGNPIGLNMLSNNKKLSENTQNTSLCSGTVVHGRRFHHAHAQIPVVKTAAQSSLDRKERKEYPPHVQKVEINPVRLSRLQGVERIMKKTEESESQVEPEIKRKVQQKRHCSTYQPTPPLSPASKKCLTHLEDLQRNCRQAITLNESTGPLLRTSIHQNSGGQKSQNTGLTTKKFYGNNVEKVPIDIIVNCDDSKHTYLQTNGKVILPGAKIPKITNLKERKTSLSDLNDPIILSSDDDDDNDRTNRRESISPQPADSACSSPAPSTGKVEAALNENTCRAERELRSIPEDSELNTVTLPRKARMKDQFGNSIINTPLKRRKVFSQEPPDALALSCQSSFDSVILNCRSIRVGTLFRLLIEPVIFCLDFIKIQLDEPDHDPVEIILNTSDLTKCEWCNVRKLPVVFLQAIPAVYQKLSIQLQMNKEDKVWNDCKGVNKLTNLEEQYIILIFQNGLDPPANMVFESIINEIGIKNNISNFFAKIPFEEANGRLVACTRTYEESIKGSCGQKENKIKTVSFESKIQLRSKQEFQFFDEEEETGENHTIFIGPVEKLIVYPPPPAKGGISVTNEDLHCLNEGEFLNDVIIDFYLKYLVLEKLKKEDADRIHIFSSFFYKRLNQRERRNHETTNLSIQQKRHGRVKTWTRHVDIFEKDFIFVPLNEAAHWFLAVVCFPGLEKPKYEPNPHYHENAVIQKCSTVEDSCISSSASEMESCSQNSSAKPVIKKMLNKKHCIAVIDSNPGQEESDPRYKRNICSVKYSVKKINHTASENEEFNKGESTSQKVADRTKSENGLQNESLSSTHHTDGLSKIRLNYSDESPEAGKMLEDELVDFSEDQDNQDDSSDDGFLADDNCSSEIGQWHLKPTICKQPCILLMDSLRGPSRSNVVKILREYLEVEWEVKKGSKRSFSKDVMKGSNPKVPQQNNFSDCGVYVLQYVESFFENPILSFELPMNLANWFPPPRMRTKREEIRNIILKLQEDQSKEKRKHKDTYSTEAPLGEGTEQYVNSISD

[4] = molecular target: T4, Sentrin-specific protease 7 (Homo sapiens, UniProt Q9BQF6); assay: inhibition of human SENP7 cleavage activity – biochemical, luminescence, SAR follow-up (AID 504497); assay type: functional
T4 sequence (Q9BQF6 whole entry): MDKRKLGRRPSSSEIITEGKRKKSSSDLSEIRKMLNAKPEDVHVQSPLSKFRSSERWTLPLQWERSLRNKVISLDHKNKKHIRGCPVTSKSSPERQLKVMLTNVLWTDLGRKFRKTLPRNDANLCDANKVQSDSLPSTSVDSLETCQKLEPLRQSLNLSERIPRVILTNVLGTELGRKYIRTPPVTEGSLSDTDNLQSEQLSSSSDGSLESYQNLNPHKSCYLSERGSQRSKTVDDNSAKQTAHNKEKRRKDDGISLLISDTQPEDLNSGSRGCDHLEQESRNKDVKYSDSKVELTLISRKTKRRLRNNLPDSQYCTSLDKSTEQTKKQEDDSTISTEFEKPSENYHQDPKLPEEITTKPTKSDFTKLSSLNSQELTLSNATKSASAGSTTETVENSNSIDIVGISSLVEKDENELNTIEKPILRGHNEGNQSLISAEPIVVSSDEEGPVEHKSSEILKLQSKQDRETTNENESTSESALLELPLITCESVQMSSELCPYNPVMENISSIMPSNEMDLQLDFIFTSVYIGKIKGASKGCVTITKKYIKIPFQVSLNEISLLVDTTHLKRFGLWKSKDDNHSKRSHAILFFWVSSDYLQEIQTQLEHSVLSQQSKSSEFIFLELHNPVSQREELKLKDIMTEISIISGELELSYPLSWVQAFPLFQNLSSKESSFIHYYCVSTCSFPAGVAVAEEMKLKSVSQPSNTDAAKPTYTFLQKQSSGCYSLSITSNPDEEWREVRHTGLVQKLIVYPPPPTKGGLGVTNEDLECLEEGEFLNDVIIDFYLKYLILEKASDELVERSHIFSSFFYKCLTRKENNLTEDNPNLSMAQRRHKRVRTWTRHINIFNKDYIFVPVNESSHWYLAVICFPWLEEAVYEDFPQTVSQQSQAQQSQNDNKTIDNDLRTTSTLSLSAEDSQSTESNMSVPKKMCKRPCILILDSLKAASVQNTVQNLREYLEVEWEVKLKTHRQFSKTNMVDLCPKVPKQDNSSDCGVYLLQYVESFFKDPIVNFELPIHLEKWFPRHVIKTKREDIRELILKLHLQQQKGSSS

[5] = molecular target: Voltage-dependent T-type calcium channel subunit alpha-1H (Homo sapiens, UniProt O95180); assay type: functional;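 further: channel activity triggered by adding a high calcium stimulation buffer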
[6] = molecular target: T5, Streptokinase A (Streptococcus pyogenes serotype M1, UniProt P10520); assay: viability-normalized secreted streptokinase activity reduction – plasminogen activation absorbance, OD405, dose response (AID 1914); assay type: functional, Streptococcus pyogenes M1 GAS;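 further: secreted streptokinase activity via plasminogen activation per viability signal from cell pellet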
T5 sequence (P10520 whole entry): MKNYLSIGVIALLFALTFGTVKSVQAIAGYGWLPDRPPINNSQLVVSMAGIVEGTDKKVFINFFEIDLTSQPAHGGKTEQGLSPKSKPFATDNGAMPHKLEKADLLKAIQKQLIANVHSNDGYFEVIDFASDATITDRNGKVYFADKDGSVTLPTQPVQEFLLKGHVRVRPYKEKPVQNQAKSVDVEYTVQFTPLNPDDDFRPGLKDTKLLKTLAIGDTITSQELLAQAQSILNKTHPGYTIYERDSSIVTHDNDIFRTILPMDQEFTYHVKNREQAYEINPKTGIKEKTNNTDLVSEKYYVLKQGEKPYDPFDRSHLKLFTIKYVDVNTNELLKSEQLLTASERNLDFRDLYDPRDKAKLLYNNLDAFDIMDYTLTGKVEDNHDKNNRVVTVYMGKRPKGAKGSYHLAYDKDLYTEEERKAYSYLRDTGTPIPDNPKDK

[7] = molecular target: T6, Apoptotic protease-activating factor 1 (Homo sapiens, UniProt O14727); assay type: functional
T6 sequence (O14727 whole entry): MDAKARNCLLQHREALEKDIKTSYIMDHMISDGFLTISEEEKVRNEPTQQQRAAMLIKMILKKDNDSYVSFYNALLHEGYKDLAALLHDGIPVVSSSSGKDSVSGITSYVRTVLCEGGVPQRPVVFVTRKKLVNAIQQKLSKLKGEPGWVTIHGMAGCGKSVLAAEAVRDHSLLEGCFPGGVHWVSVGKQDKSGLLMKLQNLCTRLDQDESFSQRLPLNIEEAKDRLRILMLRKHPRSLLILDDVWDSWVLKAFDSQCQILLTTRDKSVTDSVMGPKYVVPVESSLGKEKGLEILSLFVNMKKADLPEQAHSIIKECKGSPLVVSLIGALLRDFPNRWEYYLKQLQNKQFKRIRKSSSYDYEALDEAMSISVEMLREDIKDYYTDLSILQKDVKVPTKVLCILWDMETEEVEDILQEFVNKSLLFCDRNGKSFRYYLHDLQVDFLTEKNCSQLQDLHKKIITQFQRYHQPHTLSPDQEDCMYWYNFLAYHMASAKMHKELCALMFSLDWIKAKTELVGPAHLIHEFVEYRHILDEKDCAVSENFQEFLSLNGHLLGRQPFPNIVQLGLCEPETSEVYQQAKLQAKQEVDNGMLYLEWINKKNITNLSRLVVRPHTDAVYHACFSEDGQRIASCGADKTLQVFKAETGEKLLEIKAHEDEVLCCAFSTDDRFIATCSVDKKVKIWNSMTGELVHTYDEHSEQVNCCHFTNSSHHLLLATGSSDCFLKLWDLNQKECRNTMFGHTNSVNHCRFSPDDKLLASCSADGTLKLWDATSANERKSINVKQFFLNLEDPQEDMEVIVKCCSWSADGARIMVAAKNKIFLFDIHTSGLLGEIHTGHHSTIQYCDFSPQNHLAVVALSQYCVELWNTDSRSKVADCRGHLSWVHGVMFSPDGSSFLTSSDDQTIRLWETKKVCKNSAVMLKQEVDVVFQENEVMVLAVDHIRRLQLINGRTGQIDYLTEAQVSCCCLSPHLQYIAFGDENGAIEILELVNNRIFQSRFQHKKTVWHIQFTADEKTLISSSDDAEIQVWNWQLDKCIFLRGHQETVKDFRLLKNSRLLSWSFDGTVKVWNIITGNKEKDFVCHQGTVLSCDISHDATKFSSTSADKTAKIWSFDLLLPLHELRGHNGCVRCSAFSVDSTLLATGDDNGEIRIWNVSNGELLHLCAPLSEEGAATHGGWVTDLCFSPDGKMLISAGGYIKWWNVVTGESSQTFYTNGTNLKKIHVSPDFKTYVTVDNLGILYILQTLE

[8] = molecular target: T7, Voltage-gated N-type calcium channel alpha-1B subunit/Amyloid beta A4 precursor protein-binding family A member 1 (Homo sapiens, UniProt Q00975+Q02410); assay type: protein assay
T7 sequence (Q00975 whole entry): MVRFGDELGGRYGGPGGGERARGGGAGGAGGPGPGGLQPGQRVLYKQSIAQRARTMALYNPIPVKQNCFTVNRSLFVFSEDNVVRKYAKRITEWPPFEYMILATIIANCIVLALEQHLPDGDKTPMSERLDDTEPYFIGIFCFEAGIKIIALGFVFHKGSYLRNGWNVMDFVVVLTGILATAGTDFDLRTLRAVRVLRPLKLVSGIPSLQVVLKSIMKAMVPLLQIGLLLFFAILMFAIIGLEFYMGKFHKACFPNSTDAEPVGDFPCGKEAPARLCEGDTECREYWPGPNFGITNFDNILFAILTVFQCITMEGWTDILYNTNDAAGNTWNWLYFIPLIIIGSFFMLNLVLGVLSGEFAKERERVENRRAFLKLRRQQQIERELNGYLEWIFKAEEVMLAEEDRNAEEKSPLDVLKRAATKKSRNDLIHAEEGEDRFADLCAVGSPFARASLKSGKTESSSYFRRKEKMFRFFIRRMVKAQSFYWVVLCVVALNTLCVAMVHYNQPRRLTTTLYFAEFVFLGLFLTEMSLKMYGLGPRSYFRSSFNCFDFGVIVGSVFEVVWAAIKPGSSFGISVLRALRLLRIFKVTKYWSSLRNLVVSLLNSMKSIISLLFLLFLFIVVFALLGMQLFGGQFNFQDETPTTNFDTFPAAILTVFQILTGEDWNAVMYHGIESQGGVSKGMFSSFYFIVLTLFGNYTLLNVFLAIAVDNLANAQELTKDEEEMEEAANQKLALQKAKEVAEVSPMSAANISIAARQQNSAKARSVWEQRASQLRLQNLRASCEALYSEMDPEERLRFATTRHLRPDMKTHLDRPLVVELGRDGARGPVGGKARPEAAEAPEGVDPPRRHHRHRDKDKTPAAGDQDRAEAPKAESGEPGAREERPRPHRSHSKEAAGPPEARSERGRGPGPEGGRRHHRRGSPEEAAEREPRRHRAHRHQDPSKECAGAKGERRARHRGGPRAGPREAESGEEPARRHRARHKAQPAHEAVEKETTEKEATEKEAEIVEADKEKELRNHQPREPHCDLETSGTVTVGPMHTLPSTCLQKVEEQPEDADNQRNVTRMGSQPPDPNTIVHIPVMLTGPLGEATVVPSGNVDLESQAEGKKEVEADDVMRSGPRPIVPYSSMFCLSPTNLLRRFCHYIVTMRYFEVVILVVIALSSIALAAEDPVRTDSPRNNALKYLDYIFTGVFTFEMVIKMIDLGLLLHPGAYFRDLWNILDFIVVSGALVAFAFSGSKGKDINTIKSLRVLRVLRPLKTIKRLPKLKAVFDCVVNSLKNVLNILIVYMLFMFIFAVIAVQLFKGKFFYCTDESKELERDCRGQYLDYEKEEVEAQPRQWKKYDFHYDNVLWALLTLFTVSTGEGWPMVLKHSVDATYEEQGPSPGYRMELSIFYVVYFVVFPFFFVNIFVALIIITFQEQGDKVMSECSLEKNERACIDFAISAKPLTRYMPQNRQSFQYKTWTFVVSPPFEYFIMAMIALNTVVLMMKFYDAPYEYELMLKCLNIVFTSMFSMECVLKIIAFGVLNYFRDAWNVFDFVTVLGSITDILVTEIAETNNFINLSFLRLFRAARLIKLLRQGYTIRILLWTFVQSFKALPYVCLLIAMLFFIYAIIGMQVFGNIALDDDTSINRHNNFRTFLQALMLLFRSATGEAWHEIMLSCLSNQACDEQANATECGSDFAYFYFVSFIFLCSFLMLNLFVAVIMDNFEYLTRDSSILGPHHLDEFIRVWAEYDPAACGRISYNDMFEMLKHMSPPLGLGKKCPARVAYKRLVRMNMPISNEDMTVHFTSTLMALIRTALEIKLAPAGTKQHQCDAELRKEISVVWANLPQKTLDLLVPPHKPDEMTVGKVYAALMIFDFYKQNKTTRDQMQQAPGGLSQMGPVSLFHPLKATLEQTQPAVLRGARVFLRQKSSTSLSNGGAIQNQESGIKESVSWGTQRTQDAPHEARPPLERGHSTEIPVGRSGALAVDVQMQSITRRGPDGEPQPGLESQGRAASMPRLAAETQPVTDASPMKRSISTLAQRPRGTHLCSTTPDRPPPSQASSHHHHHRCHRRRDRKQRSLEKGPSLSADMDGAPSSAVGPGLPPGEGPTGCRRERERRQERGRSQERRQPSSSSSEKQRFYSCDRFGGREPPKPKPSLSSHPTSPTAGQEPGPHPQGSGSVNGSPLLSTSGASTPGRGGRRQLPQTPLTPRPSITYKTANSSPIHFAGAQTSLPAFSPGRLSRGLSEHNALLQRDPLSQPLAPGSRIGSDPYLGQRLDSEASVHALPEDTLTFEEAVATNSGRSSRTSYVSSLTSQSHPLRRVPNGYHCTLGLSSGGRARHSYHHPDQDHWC
T7 sequence (Q02410 whole entry): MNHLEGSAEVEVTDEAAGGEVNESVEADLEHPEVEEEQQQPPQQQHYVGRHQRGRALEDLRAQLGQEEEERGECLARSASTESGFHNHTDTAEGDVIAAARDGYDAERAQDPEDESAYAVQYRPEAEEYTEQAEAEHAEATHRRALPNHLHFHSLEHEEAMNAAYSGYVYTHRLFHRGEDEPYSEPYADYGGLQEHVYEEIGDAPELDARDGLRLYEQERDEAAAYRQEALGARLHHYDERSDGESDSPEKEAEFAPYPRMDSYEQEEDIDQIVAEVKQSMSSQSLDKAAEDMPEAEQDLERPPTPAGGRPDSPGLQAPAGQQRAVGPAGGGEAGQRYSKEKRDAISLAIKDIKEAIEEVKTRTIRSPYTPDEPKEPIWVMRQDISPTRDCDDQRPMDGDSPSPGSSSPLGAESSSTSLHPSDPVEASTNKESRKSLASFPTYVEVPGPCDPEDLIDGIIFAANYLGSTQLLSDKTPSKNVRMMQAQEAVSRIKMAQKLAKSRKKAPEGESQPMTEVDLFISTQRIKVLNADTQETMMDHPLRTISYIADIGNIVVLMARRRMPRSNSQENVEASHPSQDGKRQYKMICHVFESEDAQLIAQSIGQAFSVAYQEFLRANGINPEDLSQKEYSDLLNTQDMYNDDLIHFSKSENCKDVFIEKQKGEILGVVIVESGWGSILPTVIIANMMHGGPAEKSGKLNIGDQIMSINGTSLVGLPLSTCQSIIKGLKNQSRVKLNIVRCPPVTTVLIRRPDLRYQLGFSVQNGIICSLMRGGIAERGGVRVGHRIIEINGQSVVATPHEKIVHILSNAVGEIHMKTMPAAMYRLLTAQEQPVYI

[9] = molecular target: T7, Voltage-gated N-type calcium channel alpha-1B subunit/Amyloid beta A4 precursor protein-binding family A member 1; assay type: protein assay; remark: listed apart in the source
[10] = system: Streptococcus; assay: GAS UMAA2166 growth inhibition – luminescence, BacTiterGlo, counter-screen for streptokinase expression inhibitor project, dose response (AID 1915); assay type: functional, organism-based;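 further: potency for reduction of bacterial viability or growth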
[11] = system: Vero; assay: cells; assay type: functional; details: Chlorocebus sabaeus
[12] = system: INS1; assay: INS-1E survival protection against cytokine death – cell-based, luminescence, retest, dose response (AID 449756); assay type: functional; details: Rattus norvegicus;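 further: cell death triggered by IL-1 beta plus TNF-alpha plus IFN-gamma mixture; protective hits raise ATP signal compared with cytokine alone wells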
[13] = system: Streptococcus sp. 'group A'; assay: Streptococcus pyogenes SK(-)GAS viability under kanamycin – luminescence, BacTiterGlo, confirmation, counter-screen for streptokinase expression inhibitor project, dose response (AID 1900); assay type: functional, organism-based
[14] = molecular target: T8, Estrogen receptor (Homo sapiens, UniProt P03372);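 further: potency for inhibiting coactivator peptide recruitment to the receptor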
T8 sequence (P03372 whole entry): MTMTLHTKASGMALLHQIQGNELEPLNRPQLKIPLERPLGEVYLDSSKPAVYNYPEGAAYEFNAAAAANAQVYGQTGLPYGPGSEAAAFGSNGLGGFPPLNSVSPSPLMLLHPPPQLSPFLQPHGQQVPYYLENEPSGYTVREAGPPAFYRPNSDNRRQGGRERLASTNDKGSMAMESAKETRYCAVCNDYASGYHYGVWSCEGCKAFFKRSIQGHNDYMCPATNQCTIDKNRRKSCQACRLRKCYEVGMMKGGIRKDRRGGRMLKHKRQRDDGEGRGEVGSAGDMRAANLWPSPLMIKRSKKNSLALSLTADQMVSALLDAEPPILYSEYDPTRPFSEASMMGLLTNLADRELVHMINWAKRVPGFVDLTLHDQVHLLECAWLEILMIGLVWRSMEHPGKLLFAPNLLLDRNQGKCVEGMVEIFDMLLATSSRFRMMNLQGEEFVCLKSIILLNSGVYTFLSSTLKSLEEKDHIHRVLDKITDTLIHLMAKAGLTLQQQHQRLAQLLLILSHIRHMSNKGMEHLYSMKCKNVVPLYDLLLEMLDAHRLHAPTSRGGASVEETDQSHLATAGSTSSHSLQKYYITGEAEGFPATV

Row | Compound | IC50 [1] | IC50 [2] | IC50 [3] | IC50 [4] | EC50 [5] | EC50 [6] | IC50 [7] | IC50 [8] | IC50 [9] | EC50 [10] | CC50 [11] | AC50 [12] | EC50 [13] | IC50 [14]
1 | C/C(=C\c1ccccc1)c1nc(-c2cccc(C(F)(F)F)c2)no1 | > 99 µM (inactive) | > 99 µM (inactive) | > 99 µM (inactive) | > 99 µM (inactive) |  |  |  |  |  |  |  |  |  | 
2 | CCCCCCc1cc2cc(-c3nnc(-c4ccccc4)o3)c(=O)oc2cc1O |  |  |  |  | 3 µM (active) | > 150 µM (not active) | 11.7 µM (active) | 9.32 µM (active) | > 50 µM (inactive) | 38.7 µM (inconclusive) | 11.3 µM (active) | 7.4 µM (active) | 6.12 µM (active) | 34.9 µM (not active)
3 | O=C(Nc1nc2c(Br)cccc2s1)c1ccc2c(c1)OCCO2 | 13 µM (active) | 5.3 µM (active) | 4.5 µM (active) | 2.6 µM (active) |  |  |  |  |  |  |  |  |  | 

From ChEMBL document CHEMBL1201862, “PubChem BioAssay data set” (2004)
